Results from ChEMBL document CHEMBL4480409, “SGC-GAK-1: A Chemical Probe for Cyclin G Associated Kinase (GAK)” (J Med Chem, 2019).

Columns and labels:
[1] = molecular target: T1, Receptor-interacting serine/threonine-protein kinase 2 (Homo sapiens, UniProt O43353); assay: Displacement of fluorescent tracer from N-terminus of human RIPK2 expressed in HEK293T cells after 2 hrs by NanoBRET target engagement assay; assay type: cell-based
[2] = molecular target: Atypical kinase COQ8A, mitochondrial (Homo sapiens, UniProt Q8NI60); assay: Binding affinity to biotinylated full length human ADCK3 expressed in Escherichia coli incubated for 1.5 hrs by fluorescent tracer dependent TR-FRET based competitive ligand binding displacement assay
[3] = test system: LNCaP; assay: Cytotoxicity against human LNCAP cells after 72 hrs by MTS assay; assay type: functional, cell-based
[4] = molecular target: T2, Cyclin-G-associated kinase (Homo sapiens) (UniProt O14976)
T2 sequence (whole entry): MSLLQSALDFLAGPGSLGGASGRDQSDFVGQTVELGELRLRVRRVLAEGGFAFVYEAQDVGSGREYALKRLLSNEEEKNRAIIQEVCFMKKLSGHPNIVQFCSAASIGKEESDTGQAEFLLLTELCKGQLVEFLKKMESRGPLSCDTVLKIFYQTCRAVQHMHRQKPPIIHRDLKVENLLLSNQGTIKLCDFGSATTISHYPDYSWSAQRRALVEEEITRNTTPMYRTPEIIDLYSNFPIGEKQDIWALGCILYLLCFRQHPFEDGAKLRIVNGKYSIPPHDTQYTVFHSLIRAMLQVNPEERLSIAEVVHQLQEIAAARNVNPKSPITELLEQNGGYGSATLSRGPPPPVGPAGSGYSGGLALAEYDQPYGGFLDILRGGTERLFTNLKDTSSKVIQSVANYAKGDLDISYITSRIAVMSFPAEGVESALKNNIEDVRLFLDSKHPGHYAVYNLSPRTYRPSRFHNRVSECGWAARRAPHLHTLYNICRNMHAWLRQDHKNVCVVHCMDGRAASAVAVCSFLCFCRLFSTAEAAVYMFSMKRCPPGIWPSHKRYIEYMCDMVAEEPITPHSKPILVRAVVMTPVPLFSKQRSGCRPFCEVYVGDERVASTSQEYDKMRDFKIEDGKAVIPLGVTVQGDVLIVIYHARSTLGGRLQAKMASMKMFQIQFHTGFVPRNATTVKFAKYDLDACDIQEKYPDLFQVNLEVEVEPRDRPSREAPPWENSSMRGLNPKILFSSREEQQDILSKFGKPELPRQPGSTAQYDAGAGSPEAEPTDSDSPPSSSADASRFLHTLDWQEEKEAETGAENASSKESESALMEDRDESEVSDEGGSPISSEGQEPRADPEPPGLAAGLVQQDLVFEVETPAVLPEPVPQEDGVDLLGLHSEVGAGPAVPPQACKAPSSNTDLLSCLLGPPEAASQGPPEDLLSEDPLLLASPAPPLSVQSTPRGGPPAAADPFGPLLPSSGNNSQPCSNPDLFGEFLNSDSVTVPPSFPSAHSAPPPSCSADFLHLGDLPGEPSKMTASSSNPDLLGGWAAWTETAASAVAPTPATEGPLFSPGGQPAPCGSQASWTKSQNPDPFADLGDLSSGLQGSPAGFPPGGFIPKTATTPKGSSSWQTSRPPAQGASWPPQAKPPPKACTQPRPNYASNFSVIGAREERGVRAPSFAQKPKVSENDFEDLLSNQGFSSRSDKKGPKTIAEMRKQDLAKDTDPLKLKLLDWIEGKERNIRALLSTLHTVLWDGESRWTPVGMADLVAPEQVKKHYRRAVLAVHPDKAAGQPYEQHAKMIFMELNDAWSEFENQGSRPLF
Description: Binding affinity to GAK (unknown origin) assessed as change in melting temperature by DSF assay

[5] = test system: CWR22R; assay: Cytotoxicity against human 22Rv1 cells after 72 hrs by MTS assay; assay type: functional, cell-based; conditions: 22Rv1, 72 h
[6] = molecular target: T3, Serine/threonine-protein kinase NLK (Homo sapiens, UniProt Q9UBE8); assay: Binding affinity to biotinylated full length human NLK expressed in Escherichia coli incubated for 1.5 hrs by fluorescent tracer dependent TR-FRET based competitive ligand binding displacement assay
T3 sequence (Q9UBE8 whole entry): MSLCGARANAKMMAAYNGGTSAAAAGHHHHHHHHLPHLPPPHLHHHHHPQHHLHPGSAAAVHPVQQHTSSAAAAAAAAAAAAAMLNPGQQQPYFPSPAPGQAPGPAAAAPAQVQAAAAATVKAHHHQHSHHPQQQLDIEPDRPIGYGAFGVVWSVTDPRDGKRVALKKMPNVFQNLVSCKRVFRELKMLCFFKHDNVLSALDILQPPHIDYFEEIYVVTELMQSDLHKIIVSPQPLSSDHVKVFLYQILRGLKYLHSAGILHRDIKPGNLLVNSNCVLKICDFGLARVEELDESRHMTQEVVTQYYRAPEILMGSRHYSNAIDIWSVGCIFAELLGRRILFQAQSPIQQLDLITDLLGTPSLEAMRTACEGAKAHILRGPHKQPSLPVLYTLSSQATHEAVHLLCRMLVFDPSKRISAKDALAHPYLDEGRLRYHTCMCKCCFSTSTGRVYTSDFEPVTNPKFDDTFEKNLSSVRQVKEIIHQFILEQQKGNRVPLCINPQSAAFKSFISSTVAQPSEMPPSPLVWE

[7] = molecular target: BMP-2-inducible protein kinase (Homo sapiens, UniProt Q9NSY1); assay: Binding affinity to C-terminal AVI-tagged BMP2K (unknown origin) (38 to 345 residues) expressed in Escherichia coli after 1.5 hrs by TR-FRET assay
[8] = molecular target: T1, Receptor-interacting serine/threonine-protein kinase 2; assay: Binding affinity to biotinylated human RIPK2 (1 to 310 residues) expressed in Escherichia coli incubated for 1.5 hrs by fluorescent tracer dependent TR-FRET based competitive ligand binding displacement assay
[9] = molecular target: T4, Cyclin-G-associated kinase (Homo sapiens, UniProt O14976)
T4 sequence (O14976 whole entry): T2 sequence (whole entry)

[10] = molecular target: T4, Cyclin-G-associated kinase; assay: Binding affinity to biotinylated human GAK (13 to 338 residues) expressed in Escherichia coli incubated for 1.5 hrs by fluorescent tracer dependent TR-FRET based competitive ligand binding displacement assay
[11] = molecular target: T4, Cyclin-G-associated kinase; assay: Displacement of fluorescent tracer from N-terminus of human GAK expressed in HEK293T cells after 2 hrs by NanoBRET target engagement assay; assay type: cell-based
[12] = molecular target: AP2-associated protein kinase 1 (Homo sapiens, UniProt Q2M2I8); assay: Binding affinity to C-terminal AVI-tagged AAK1 (unknown origin) (31 to 396 residues) expressed in Escherichia coli after 1.5 hrs by TR-FRET assay
[13] = molecular target: Serine/threonine-protein kinase 16 (Homo sapiens, UniProt O75716); assay: Binding affinity to C-terminal AVI-tagged STK16 (unknown origin) (13 to 305 residues) expressed in Escherichia coli after 1.5 hrs by TR-FRET assay
[14] = molecular target: T5, Interleukin-1 receptor-associated kinase 3 (Homo sapiens, UniProt Q9Y616); assay: Binding affinity to human IRAK3 (147 to 596 residues) expressed in bacterial expression system by KINOMEscan assay
T5 sequence (Q9Y616 whole entry): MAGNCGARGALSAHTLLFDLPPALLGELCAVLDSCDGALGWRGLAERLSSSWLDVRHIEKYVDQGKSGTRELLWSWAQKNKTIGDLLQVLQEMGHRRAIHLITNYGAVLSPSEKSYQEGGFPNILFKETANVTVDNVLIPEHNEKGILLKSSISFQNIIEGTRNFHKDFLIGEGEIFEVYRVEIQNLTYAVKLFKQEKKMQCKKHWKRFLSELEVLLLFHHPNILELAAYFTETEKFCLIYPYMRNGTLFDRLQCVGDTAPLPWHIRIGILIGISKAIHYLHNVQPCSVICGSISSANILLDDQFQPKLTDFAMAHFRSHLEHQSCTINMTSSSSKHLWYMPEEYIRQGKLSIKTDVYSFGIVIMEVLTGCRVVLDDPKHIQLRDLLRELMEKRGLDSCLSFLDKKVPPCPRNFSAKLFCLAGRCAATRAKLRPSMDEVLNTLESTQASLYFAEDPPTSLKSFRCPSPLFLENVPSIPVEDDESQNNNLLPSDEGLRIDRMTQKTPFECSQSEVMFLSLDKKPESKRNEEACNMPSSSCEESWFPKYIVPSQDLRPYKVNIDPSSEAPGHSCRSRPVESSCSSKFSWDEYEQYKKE

[15] = molecular target: T2, Cyclin-G-associated kinase (Homo sapiens); assay: Binding affinity to biotinylated human GAK (13 to 338 residues) expressed in Escherichia coli at 1 uM incubated for 1.5 hrs by fluorescent tracer dependent TR-FRET based competitive ligand binding displacement assay
[16] = molecular target: T4, Cyclin-G-associated kinase; assay: Binding affinity to GAK (unknown origin)

Chain of Atypical kinase COQ8A, mitochondrial (Q8NI60 whole entry): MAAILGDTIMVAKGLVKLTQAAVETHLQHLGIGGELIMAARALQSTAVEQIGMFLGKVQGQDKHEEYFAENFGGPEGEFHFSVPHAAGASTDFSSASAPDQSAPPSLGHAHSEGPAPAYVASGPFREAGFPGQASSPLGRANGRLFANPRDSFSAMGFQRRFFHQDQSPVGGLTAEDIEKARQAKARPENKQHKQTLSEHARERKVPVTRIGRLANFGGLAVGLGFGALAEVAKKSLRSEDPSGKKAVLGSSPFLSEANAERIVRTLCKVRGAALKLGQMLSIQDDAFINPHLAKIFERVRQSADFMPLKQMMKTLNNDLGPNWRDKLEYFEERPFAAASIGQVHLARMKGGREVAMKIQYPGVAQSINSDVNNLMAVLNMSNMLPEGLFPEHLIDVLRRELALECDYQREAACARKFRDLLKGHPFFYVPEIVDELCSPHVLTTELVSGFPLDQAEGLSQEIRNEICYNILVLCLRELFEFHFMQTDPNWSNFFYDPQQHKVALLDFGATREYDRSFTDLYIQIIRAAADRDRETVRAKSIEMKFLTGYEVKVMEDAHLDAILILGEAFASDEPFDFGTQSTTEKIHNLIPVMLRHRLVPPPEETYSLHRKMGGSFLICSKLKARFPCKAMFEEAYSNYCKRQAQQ
T1 sequence (O43353 whole entry): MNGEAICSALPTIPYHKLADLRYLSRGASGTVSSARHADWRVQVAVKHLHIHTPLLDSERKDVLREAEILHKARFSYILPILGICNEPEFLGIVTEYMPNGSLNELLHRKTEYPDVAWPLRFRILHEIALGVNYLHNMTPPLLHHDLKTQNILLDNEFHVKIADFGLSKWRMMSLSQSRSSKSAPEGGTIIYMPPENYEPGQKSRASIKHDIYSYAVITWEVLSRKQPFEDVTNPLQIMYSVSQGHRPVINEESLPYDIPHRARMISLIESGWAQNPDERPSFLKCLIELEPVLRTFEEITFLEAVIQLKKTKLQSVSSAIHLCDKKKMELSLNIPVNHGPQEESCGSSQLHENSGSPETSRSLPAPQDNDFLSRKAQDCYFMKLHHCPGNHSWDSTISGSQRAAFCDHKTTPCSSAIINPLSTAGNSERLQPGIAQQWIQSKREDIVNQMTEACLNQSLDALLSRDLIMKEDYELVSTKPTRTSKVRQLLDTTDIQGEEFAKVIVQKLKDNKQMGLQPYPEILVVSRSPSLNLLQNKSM
Chain of BMP-2-inducible protein kinase (Q9NSY1 whole entry, the tested form may be a part): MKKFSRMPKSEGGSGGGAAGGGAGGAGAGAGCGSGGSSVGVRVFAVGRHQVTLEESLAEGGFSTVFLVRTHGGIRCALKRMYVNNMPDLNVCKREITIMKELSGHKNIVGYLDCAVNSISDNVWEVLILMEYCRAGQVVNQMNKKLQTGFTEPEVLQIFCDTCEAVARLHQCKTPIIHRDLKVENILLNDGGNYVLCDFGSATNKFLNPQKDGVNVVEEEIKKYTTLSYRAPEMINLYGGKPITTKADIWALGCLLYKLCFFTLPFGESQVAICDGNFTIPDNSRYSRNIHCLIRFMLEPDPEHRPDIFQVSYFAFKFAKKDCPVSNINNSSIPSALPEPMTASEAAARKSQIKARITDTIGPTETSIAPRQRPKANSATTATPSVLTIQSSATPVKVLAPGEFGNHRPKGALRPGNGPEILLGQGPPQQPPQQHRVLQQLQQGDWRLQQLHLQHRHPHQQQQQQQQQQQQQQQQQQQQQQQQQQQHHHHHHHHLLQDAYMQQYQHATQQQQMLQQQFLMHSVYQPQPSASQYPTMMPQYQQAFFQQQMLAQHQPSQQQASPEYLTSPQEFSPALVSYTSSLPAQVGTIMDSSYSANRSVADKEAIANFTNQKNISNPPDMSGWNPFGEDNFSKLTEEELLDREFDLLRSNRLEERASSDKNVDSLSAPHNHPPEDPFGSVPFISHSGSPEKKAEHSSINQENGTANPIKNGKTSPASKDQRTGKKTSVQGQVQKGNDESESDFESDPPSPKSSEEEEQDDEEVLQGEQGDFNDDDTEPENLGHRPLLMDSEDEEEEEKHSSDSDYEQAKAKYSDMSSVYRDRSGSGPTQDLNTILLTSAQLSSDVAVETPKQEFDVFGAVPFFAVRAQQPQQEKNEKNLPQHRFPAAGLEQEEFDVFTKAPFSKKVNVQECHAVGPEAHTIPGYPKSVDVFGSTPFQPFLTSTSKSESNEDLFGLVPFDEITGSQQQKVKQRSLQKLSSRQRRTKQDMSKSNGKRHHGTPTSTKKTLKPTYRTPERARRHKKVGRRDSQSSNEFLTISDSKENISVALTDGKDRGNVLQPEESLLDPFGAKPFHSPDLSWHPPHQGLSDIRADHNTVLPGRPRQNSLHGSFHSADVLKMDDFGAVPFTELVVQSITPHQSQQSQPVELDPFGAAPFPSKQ
Chain of AP2-associated protein kinase 1 (Q2M2I8 whole entry, the tested form may be a part): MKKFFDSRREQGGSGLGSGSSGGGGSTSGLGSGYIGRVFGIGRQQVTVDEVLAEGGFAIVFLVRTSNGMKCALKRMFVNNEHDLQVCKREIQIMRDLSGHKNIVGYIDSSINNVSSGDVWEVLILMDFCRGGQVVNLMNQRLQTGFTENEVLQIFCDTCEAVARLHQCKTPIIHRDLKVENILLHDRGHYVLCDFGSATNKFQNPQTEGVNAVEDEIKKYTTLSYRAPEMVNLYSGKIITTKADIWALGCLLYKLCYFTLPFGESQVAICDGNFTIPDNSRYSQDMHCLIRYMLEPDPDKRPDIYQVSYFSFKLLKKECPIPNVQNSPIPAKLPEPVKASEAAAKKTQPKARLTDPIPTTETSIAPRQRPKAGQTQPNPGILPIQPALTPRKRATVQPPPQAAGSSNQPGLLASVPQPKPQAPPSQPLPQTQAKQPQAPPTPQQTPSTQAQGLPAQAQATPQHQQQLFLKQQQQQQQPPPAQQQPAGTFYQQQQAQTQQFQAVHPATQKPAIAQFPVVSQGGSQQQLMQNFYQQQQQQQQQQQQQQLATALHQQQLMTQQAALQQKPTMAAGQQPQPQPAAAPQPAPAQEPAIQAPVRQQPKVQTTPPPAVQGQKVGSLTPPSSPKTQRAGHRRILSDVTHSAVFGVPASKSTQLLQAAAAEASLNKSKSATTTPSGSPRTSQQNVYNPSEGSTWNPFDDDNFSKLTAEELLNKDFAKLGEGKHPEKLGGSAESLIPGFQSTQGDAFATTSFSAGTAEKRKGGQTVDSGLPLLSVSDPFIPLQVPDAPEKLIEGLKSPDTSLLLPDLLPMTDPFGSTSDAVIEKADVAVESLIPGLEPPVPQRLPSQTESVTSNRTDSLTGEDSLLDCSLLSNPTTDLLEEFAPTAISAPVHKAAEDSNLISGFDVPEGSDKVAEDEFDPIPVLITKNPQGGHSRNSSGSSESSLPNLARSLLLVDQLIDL
Chain of Serine/threonine-protein kinase 16 (O75716 whole entry, the tested form may be a part): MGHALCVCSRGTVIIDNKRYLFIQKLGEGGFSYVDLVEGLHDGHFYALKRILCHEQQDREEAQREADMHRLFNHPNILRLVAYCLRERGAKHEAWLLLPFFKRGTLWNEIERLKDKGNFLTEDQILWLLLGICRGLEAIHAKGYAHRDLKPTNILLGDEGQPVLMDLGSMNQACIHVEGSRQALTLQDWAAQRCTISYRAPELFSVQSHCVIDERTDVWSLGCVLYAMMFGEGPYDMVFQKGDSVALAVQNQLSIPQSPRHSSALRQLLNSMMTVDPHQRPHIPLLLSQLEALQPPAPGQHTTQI

Kd [2] [nM]	Kd [6] [nM]	Kd [8] [nM]	Ki [9] [nM]	Kd [10] [nM]	Structure (SMILES)	also measured
190	520	110			COc1cc(Nc2ccnc3ccc(Br)cc23)cc(OC)c1OC	IC50 [1]: 360 nM; IC50 [3]: 650 nM; ΔTm [4]: 7.7 °C; IC50 [5]: 170 nM; Ki [7]: > 100000 nM
1200	700	200		17	COc1ccc2c(Nc3cc(OC)c(OC)c(OC)c3)ccnc2c1	
170	29	88		3.9	COc1cc(Nc2ccnc3ccc(C#N)cc23)cc(OC)c1OC	
190	660	69		7.9	COc1cc(Nc2ccnc3ccc(I)cc23)cc(OC)c1OC	
2000	2600	170		21	COc1ccc2nccc(Nc3cc(OC)c(OC)c(OC)c3)c2c1	
66	28	96		9.7	COc1cc(Nc2ccnc3cc(C#N)ccc23)cc(OC)c1OC	

More lines, now with the values behind:

Structure (SMILES)	Kd [2] [nM]	Kd [6] [nM]	Kd [8] [nM]	Ki [9] [nM]	Kd [10] [nM]	also measured
CC(C)(C)S(=O)(=O)c1ccc2nccc(Nc3n[nH]c4ccc(F)cc34)c2c1				220		
Clc1cc2cc(c1)-c1cnn3ccc(nc13)NCCOCCO2				3.8		IC50 [1]: 11 nM; IC50 [11]: 60 nM
COc1cc2nccc(Nc3cc(OC)c(OC)c(OC)c3)c2cc1OC	250	410	42		2.9	
COc1cc(Nc2ccnc3ccc(Cl)cc23)cc(OC)c1OC	170	650	85		6.7	
CC(C)(C)S(=O)(=O)c1cc2c(Nc3ccc4scnc4c3)ncnc2cc1OCCO				8200		IC50 [1]: 2 nM; IC50 [11]: > 10000 nM
Cc1[nH]nc(Nc2ncnc3cc(OCCO)c(S(=O)(=O)C(C)(C)C)cc23)c1C				49		
COc1cc(Nc2cc(C)nc3ccc(C(F)(F)F)cc23)cc(OC)c1OC				19000		ΔTm [4]: -0.52 °C; Ki [12]: > 100000 nM; Ki [13]: > 100000 nM; Ki [7]: > 100000 nM
COc1cc(N(C)c2ccnc3ccc(C(F)(F)F)cc23)cc(OC)c1OC				2500		IC50 [3]: > 100000 nM; ΔTm [4]: -0.3 °C; IC50 [5]: > 100000 nM; Ki [12]: 78000 nM; Ki [13]: 15000 nM; Kd [14]: 740 nM; Ki [7]: 95000 nM
COc1cc(Nc2ccnc3ccc(C(C)(C)C)cc23)cc(OC)c1OC	740	350	670		25	
COc1cc(Nc2ccnc3ccccc23)cc(OC)c1OC	4100	6200	2900		59	
COc1cc(Nc2ccnc3ccc(C(F)(F)F)cc23)cc(OC)c1OC		790				Activity [15]: > 50%
COc1cc(-c2cnc3c(N4CCOCC4)snc3c2)cc(OC)c1OC						Kd [16]: 8.9 nM
